US10093627B2, “Tetrahydroquinoline derivatives and their use as Epac inhibitors” (Institut National de la Sante et de la Recherche Medicale …, priority 2012, dated 2018)

Experiments:
Epac2(AB) = target: T1, Epac2(AB) (Homo sapiens, UniProt Q8WZA2); assay: In vitro GEF activity (initial velocity of GDP exchange on Rap1A) of Epac2(AB); type: biochemical; settings: 50 μM racemic CE3F4; agonist 50 μM 007 or 300 μM cAMP; FIG. 6A
T1 construct: Human Epac2(AB) (amino acids 43-1011) carries both the CNB-A and the CNB-B domains; made in house; host or cells: Escherichia coli Rosetta 2(DE3)
T1 sequence (Q8WZA2 43-1011): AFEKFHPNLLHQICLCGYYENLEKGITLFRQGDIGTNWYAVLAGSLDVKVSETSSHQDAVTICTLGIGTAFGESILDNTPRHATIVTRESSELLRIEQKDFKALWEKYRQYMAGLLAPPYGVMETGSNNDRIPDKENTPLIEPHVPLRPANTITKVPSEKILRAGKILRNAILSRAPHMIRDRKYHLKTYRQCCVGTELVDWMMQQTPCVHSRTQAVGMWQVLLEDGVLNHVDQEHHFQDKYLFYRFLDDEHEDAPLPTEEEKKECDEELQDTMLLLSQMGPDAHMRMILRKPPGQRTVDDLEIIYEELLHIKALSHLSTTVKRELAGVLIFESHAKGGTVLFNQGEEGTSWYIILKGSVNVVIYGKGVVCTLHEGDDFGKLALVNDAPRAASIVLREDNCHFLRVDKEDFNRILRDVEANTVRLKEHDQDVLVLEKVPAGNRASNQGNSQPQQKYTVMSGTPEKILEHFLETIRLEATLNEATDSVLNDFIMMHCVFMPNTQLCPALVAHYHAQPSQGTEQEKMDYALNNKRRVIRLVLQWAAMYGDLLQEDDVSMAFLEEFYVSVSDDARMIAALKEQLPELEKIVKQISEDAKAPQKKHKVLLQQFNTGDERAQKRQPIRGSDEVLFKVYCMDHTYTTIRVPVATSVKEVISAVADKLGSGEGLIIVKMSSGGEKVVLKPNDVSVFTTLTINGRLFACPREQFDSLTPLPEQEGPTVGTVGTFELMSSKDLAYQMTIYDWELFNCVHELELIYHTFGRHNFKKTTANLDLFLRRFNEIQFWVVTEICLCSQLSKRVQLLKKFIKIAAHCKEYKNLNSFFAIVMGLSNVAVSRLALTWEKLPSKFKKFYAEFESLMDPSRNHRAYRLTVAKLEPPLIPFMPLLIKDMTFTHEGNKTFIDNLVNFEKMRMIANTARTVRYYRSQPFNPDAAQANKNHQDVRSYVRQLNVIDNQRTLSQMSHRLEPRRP
Source text: Human Epac2(AB) (amino acids 43-1011) carries both the CNB-A and the CNB-B domains. Human Epac2(B) (amino acids 283-1011) lacks the first 283 amino acids of Epac2. It is therefore deleted of its CNB-A and DEP domains, but retains the CNB-B domain and the full catalytic region. Epac2(AB) was obtained by HindIII/NotI restriction and Epac2(B) was obtained by Ssp1/Not1 restriction of a human Epac2A cDNA (a gift from Ann M Graybiel, Department of Brain and Cognitive Sciences, MIT, Cambridge). Both cDNA fragments were inserted into pET41a (Novagen), expressed in Escherichia coli Rosetta 2(DE3) (Novagen), and the GST-tagged fusion proteins were purified by nickel-nitrilotriacetic acid beads (Qiagen), as described in D. Courilleau, et al., Identification of a tetrahydroquinoline analog as a pharmacological inhibitor of the cAMP-binding protein Epac, J. Biol. Chem. 287 (2012) 44192-44202).
In vitro GDP exchange catalyzed by Epac was measured using purified recombinant Epac isoforms and Rap1A loaded with Bodipy-GDP, as described in D. Courilleau, et al (above mentioned). […] The release of Bodipy-GDP was measured in real time as the decay of fluorescence. […] The initial velocity (Vi) of GDP exchange on Rap1 was calculated as described in D. Courilleau et al.).
Data are expressed as mean±S.D. Differences in quantitative variables were examined by unpaired one- or two-tailed Student's t test. […]

[1] = tested on: Epac1-induced H-Ras activation in rat neonatal cardiac myocytes; assay: Epac1-induced H-Ras activation, H-Ras-GTP pull-down in rat neonatal cardiac myocytes; type: cell-based; settings: rat neonatal cardiac myocytes transfected with Epac1; CE3F4 30 min; Sp-007 10 μM, 10 min; FIG. 3B
Experimental: The effects of CE3F4 to prevent Epac1-induced H-Ras activation was determined by extraction of GTP-loaded H-Ras from cell lysates with the immobilized Ras-binding domain of Raf1.
HEK293 cells (FIG. 3A) or rat neonatal cardiac myocytes (FIG. 3B) were transfected with Epac1. 24 h after transfection, cells were preincubated or not with CE3F4 for 30 min and were then treated or not with Sp-007 (10 μM) for 10 min. In FIG. 3C, HEK293 cells overexpressing β1-AR and transfected with Epac1 were pretreated or not with 20 μM of CE3F4 for 30 min and stimulated or not with Iso for 10 min. Amounts of H-Ras-GTP were determined by pull-down assays. The bar graph represents the mean±S.E.M. of 5 (FIG. 3A) or 2 (FIG. 3B, 3C) independent experiments. Results are expressed as the percentage of unstimulated control cells.
Cardiac myocytes were isolated as previously described by Wollert and colleagues (1996). HEK293 cells stably expressing the β1-adrenergic receptor (β1-AR) was a gift of Dr. Shenoy (Duke University). HEK293 cells were maintained in MEM with FBS (Foetal Bovine Serum; 10%) and penicillin-streptomycin (1%). All media, sera and antibiotics used in cell culture were purchased from Invitrogen (Cergy Pontoise, France). […]

- Inhibitory effect on GEF activity of Epac2(AB), compared with Epac2(B) (Epac2(AB)): no significant difference
SMILES: CC1CCc2c(cc(Br)c(F)c2Br)N1C=O (racemic) [CE3F4]
- Amount of Ras-GTP induced by Sp-007 [1]: decreased
